# Assay results: PMC6934184, “Selective DNA-PKcs inhibition extends the therapeutic index of localized radiotherapy and chemotherapy” (The Journal of Clinical Investigation, 2019)
# Molecular target: T1, DAPK1 (Homo sapiens, UniProt P53355)
# T1 construct: purchased Thermo Fisher Scientific (Life Technologies) SelectScreen
# Test: SelectScreen Adapta
# Assay type: biochemical
# Outline: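 Percent values come from Thermo SelectScreen profiling of NU5455, combining activity and binding assays. CSF1R was run in Z'LYTE format at Km app ATP, and CAMK1 in Adapta format with ATP listed at 10.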
# T1 sequence (P53355 whole entry): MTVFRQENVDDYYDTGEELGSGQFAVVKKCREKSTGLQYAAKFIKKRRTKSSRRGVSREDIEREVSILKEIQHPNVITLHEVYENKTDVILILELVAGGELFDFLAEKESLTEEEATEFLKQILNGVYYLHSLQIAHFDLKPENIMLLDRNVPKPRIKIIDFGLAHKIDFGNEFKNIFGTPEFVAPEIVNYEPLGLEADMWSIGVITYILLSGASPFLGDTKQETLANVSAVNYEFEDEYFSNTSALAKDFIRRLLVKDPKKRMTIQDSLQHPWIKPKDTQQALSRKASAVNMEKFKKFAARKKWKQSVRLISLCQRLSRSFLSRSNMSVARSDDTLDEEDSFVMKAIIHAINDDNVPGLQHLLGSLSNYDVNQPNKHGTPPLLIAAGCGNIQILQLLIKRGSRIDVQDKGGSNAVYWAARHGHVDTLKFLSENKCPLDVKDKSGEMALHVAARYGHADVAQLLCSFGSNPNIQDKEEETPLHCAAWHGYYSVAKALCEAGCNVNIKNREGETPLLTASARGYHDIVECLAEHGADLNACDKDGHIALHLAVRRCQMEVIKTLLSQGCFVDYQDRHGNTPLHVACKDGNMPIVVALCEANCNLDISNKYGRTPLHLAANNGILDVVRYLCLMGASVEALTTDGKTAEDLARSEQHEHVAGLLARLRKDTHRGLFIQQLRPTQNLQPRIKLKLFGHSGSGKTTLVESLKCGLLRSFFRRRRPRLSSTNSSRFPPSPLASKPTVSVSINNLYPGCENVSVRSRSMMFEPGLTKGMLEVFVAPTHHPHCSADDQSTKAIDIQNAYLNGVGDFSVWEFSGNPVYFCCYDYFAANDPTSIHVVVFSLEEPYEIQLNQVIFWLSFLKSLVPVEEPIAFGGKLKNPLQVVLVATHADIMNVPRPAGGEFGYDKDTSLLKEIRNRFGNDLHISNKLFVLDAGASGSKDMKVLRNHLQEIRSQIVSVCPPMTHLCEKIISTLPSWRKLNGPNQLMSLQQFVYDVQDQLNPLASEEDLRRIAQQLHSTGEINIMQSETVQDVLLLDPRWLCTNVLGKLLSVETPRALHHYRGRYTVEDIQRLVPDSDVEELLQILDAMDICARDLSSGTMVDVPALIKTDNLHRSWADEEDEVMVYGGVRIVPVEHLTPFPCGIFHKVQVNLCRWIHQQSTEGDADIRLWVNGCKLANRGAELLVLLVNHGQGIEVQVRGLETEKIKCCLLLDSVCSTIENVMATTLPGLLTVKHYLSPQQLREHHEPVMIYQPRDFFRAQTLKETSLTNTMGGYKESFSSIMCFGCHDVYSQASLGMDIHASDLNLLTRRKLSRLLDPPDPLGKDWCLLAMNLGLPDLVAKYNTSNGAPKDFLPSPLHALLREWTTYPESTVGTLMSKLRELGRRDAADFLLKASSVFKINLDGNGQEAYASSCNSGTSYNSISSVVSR
smiles,measurement,value
CN(C(=O)CN1CCOCC1)c1ccc2sc3c(-c4cccc5c(=O)cc(N6CC7CCC(C6)O7)oc45)cccc3c2c1 [NU5455],inhibition at 1 µM,1.6%
